Measured values: ChEMBL document CHEMBL1148076, “Cucurbitacins: differential cytotoxicity, dereplication and first isolation from Gonystylus keithii” (1994)

Tests used:
Assay type in all cases: functional
CCRF-CEM = assay: Growth inhibition of human CCRF-CEM cells
HL-60(TB) = assay: Growth inhibition of human HL-60(TB) cells
K562 = assay: Growth inhibition of human K562 cells
MOLT-4 = assay: Growth inhibition of human MOLT4 cells
[1] = Growth inhibition of human […] cells
SR = assay: Growth inhibition of human SR cells
A549 = assay: Growth inhibition of human A549 cells
EKVX = assay: Growth inhibition of human EKVX cells
HOP-62 = assay: Growth inhibition of human HOP62 cells
HOP-92 = assay: Growth inhibition of human HOP92 cells
NCI-H226 = assay: Growth inhibition of human NCI-H226 cells
NCI-H23 = assay: Growth inhibition of human NCI-H23 cells
NCI-H322M = assay: Growth inhibition of human NCI-H322M cells
NCI-H460 = assay: Growth inhibition of human NCI-H460 cells
NCI-H522 = assay: Growth inhibition of human NCI-H522 cells
COLO 205 = assay: Growth inhibition of human COLO205 cells
HCC 2998 = assay: Growth inhibition of human HCC2998 cells
HCT-116 = assay: Growth inhibition of human HCT116 cells
HCT-15 = assay: Growth inhibition of human HCT15 cells
HT-29 = assay: Growth inhibition of human HT-29 cells
KM12 = assay: Growth inhibition of human KM12 cells
SW-620 = assay: Growth inhibition of human SW620 cells
SF-268 = assay: Growth inhibition of human SF268 cells
SF-295 = assay: Growth inhibition of human SF295 cells
SF-539 = assay: Growth inhibition of human SF539 cells
SNB-19 = assay: Growth inhibition of human SNB19 cells
SNB-75 = assay: Growth inhibition of human SNB75 cells
U-251 = assay: Growth inhibition of human U251 cells
LOX IMVI = assay: Growth inhibition of human LOXIMVI cells
Malme-3M = assay: Growth inhibition of human MALME-3M cells
M14 = assay: Growth inhibition of human M14 cells
SK-MEL-2 = assay: Growth inhibition of human SK-MEL-2 cells
SK-MEL-28 = assay: Growth inhibition of human SK-MEL-28 cells
SK-MEL-5 = assay: Growth inhibition of human SK-MEL-5 cells
UACC-257 = assay: Growth inhibition of human UACC257 cells
UACC-62 = assay: Growth inhibition of human UACC62 cells
IGROV-1 = assay: Growth inhibition of human IGROV1 cells
OVCAR-3 = assay: Growth inhibition of human OVCAR-3 cells
OVCAR-4 = assay: Growth inhibition of human OVCAR4 cells
OVCAR-5 = assay: Growth inhibition of human OVCAR5 cells
OVCAR-8 = assay: Growth inhibition of human OVCAR8 cells
SK-OV-3 = assay: Growth inhibition of human SKOV3 cells
786-0 = assay: Growth inhibition of human 786-0 cells
A498 = assay: Growth inhibition of human A498 cells
ACHN = assay: Growth inhibition of human ACHN cells
CAKI-1 = assay: Growth inhibition of human Caki1 cells
RXF 393 = assay: Growth inhibition of human RXF393 cells
SN12C = assay: Growth inhibition of human SN12C cells
TK-10 = assay: Growth inhibition of human TK10 cells
UO-31 = assay: Growth inhibition of human UO31 cells
PC-3 = assay: Growth inhibition of human PC3 cells
DU-145 = assay: Growth inhibition of human DU145 cells
MCF7 = assay: Growth inhibition of human MCF7 cells
NCI/ADR-RES = assay: Growth inhibition of human NCI/ADR-RES cells
MDA-MB-231 = assay: Growth inhibition of human MDA-MB-231 cells
[2] = Growth inhibition of human Hs 578T cells
MDA-MB-435 = assay: Growth inhibition of human MDA-MB-435 cells
MDA-N = assay: Growth inhibition of human MDA-N cells
BT-549 = assay: Growth inhibition of human BT549 cells
T47D = assay: Growth inhibition of human T47D cells
[3] = read-out: pLC50 (the source's name) (converted)

Compound: CC(=O)OC(C)(C)/C=C/C(=O)[C@](C)(O)[C@H]1[C@H](O)C[C@@]2(C)[C@@H]3CC=C4[C@@H](C=C(O)C(=O)C4(C)C)[C@]3(C)C(=O)C[C@]12C [CUCURBITACIN E]
- CC50 (CCRF-CEM; [3]): 34.7 µM
- TGI (CCRF-CEM; read-out: pTGI (converted)): 6.31 µM
- CC50 (HL-60(TB); [3]): 34.7 µM
- TGI (HL-60(TB); read-out: pTGI (converted)): 6.61 µM
- CC50 (K562; [3]): 32.4 µM
- TGI (K562; read-out: pTGI (converted)): 15.1 µM
- CC50 (MOLT-4; [3]): 34.7 µM
- TGI (MOLT-4; read-out: pTGI (converted)): 15.1 µM
- CC50 [1, 3]: 34.7 µM
- TGI ([1]; read-out: pTGI (converted)): 8.13 µM
- CC50 (SR; [3]): 34.7 µM
- TGI (SR; read-out: pTGI (converted)): 14.1 µM
- CC50 (A549; [3]): 33.9 µM
- TGI (A549; read-out: pTGI (converted)): 5.01 µM
- CC50 (EKVX; [3]): 15.8 µM
- TGI (EKVX; read-out: pTGI (converted)): 1.1 µM
- CC50 (HOP-62; [3]): 6.92 µM
- TGI (HOP-62; read-out: pTGI (converted)): 0.309 µM
- CC50 (HOP-92; [3]): 0.191 µM
- TGI (HOP-92; read-out: pTGI (converted)): 0.0631 µM
- CC50 (NCI-H226; [3]): 9.77 µM
- TGI (NCI-H226; read-out: pTGI (converted)): 0.0912 µM
- CC50 (NCI-H23; [3]): 10 µM
- TGI (NCI-H23; read-out: pTGI (converted)): 2.19 µM
- CC50 (NCI-H322M; [3]): 12 µM
- TGI (NCI-H322M; read-out: pTGI (converted)): 3.02 µM
- CC50 (NCI-H460; [3]): 19.1 µM
- TGI (NCI-H460; read-out: pTGI (converted)): 2.19 µM
- CC50 (NCI-H522; [3]): 3.31 µM
- TGI (NCI-H522; read-out: pTGI (converted)): 0.0813 µM
- CC50 (COLO 205; [3]): 17 µM
- TGI (COLO 205; read-out: pTGI (converted)): 5.75 µM
- CC50 (HCC 2998; [3]): 10 µM
- TGI (HCC 2998; read-out: pTGI (converted)): 0.912 µM
- CC50 (HCT-116; [3]): 1.82 µM
- TGI (HCT-116; read-out: pTGI (converted)): 0.372 µM
- CC50 (HCT-15; [3]): 11 µM
- TGI (HCT-15; read-out: pTGI (converted)): 0.537 µM
- CC50 (HT-29; [3]): 10 µM
- TGI (HT-29; read-out: pTGI (converted)): 1.82 µM
- CC50 (KM12; [3]): 15.1 µM
- TGI (KM12; read-out: pTGI (converted)): 4.79 µM
- CC50 (SW-620; [3]): 19.1 µM
- TGI (SW-620; read-out: pTGI (converted)): 2.09 µM
- CC50 (SF-268; [3]): 12.9 µM
- TGI (SF-268; read-out: pTGI (converted)): 0.1 µM
- CC50 (SF-295; [3]): 5.62 µM
- TGI (SF-295; read-out: pTGI (converted)): 0.0813 µM
- CC50 (SF-539; [3]): 0.331 µM
- TGI (SF-539; read-out: pTGI (converted)): 0.0182 µM
- CC50 (SNB-19; [3]): 1.51 µM
- TGI (SNB-19; read-out: pTGI (converted)): 0.209 µM
- CC50 (SNB-75; [3]): 17 µM
- TGI (SNB-75; read-out: pTGI (converted)): 0.603 µM
- CC50 (U-251; [3]): 3.47 µM
- TGI (U-251; read-out: pTGI (converted)): 0.646 µM
- CC50 (LOX IMVI; [3]): 0.0537 µM
- TGI (LOX IMVI; read-out: pTGI (converted)): 0.0191 µM
- CC50 (Malme-3M; [3]): 4.37 µM
- TGI (Malme-3M; read-out: pTGI (converted)): 0.0794 µM
- CC50 (M14; [3]): 6.76 µM
- TGI (M14; read-out: pTGI (converted)): 0.646 µM
- CC50 (SK-MEL-2; [3]): 0.417 µM
- TGI (SK-MEL-2; read-out: pTGI (converted)): 0.0257 µM
- CC50 (SK-MEL-28; [3]): 4.17 µM
- TGI (SK-MEL-28; read-out: pTGI (converted)): 0.0776 µM
- CC50 (SK-MEL-5; [3]): 0.759 µM
- TGI (SK-MEL-5; read-out: pTGI (converted)): 0.12 µM
- CC50 (UACC-257; [3]): 11 µM
- TGI (UACC-257; read-out: pTGI (converted)): 1.2 µM
- CC50 (UACC-62; [3]): 1.91 µM
- TGI (UACC-62; read-out: pTGI (converted)): 0.347 µM
- CC50 (IGROV-1; [3]): 3.89 µM
- TGI (IGROV-1; read-out: pTGI (converted)): 0.0199 µM
- CC50 (OVCAR-3; [3]): 3.72 µM
- TGI (OVCAR-3; read-out: pTGI (converted)): 0.0832 µM
- CC50 (OVCAR-4; [3]): 10 µM
- TGI (OVCAR-4; read-out: pTGI (converted)): 0.417 µM
- CC50 (OVCAR-5; [3]): 18.2 µM
- TGI (OVCAR-5; read-out: pTGI): 5.25 µM
- CC50 (OVCAR-8; [3]): 15.1 µM
- TGI (OVCAR-8; read-out: pTGI (converted)): 2.29 µM
- CC50 (SK-OV-3; [3]): 12 µM
- TGI (SK-OV-3; read-out: pTGI (converted)): 0.55 µM
- CC50 (786-0; [3]): 4.07 µM
- TGI (786-0; read-out: pTGI (converted)): 0.129 µM
- CC50 (A498; [3]): 0.0631 µM
- TGI (A498; read-out: pTGI (converted)): 0.0257 µM
- CC50 (ACHN; [3]): 2.51 µM
- TGI (ACHN; read-out: pTGI (converted)): 0.141 µM
- CC50 (CAKI-1; [3]): 0.0794 µM
- TGI (CAKI-1; read-out: pTGI (converted)): 0.0209 µM
- CC50 (RXF 393; [3]): 0.347 µM
- TGI (RXF 393; read-out: pTGI (converted)): 0.049 µM
- CC50 (SN12C; [3]): 12.9 µM
- TGI (SN12C; read-out: pTGI (converted)): 1.41 µM
- CC50 (TK-10; [3]): 3.31 µM
- TGI (TK-10; read-out: pTGI (converted)): 0.129 µM
- CC50 (UO-31; [3]): 2.29 µM
- TGI (UO-31; read-out: pTGI (converted)): 0.0776 µM
- CC50 (PC-3; [3]): 6.76 µM
- TGI (PC-3; read-out: pTGI (converted)): 0.257 µM
- CC50 (DU-145; [3]): 12.9 µM
- TGI (DU-145; read-out: pTGI (converted)): 2.09 µM
- CC50 (MCF7; [3]): 8.91 µM
- TGI (MCF7; read-out: pTGI (converted)): 3.24 µM
- CC50 (NCI/ADR-RES; [3]): 33.9 µM
- TGI (NCI/ADR-RES; read-out: pTGI (converted)): 8.13 µM
- CC50 (MDA-MB-231; [3]): 0.891 µM
- TGI (MDA-MB-231; read-out: pTGI (converted)): 0.0537 µM
- CC50 [2, 3]: 34.7 µM
- TGI ([2]; read-out: pTGI (converted)): 0.0891 µM
- CC50 (MDA-MB-435; [3]): 22.9 µM
- TGI (MDA-MB-435; read-out: pTGI (converted)): 2.09 µM
- CC50 (MDA-N; [3]): 14.1 µM
- TGI (MDA-N; read-out: pTGI (converted)): 1.91 µM
- CC50 (BT-549; [3]): 0.151 µM
- TGI (BT-549; read-out: pTGI (converted)): 0.0129 µM
- CC50 (T47D; [3]): 12.9 µM
- TGI (T47D; read-out: pTGI (converted)): 2 µM
